Columns and labels:
DLD-1 [1] = assay: Cell membrane permeabilization in human DLD1 cells assessed as drug level causing decrease in calcein fluorescence; assay type: ADME, cell-based
[2] = Toxicity in sheep erythrocytes assessed as induction of hemolysis; assay type: cell-based, Ovis aries, Erythrocyte; details: read-out: HD50 (the source's name)
[3] = Cell membrane permeabilization in human WS1 cells assessed as drug level causing decrease in calcein fluorescence; assay type: ADME, cell-based
A549 [4] = assay: Cell membrane permeabilization in human A549 cells assessed as drug level causing decrease in calcein fluorescence; assay type: ADME, cell-based
DLD-1 [5] = assay: Cytotoxicity against human DLD1 cells after 48 hrs by resazurin reduction test; assay type: functional, cell-based; details: DLD-1, 48 h
A549 [6] = assay: Cytotoxicity against human A549 cells after 48 hrs by resazurin reduction test; assay type: functional, cell-based; details: A549, 48 h
[7] = Cytotoxicity against human WS1 cells after 48 hrs by resazurin reduction test; assay type: cell-based; details: WS1, 48 h

Row | SMILES | IC50 (DLD-1 [1]) | HC50 [2] | IC50 [3] | IC50 (A549 [4]) | IC50 (DLD-1 [5]) | IC50 (A549 [6]) | IC50 [7]
1 | C=C(C)[C@@H]1CC[C@]2(CO)CC[C@]3(C)[C@H](CC[C@@H]4[C@@]5(C)CC[C@H](O[C@H]6O[C@H](CO)[C@@H](O)[C@H](O)[C@@H]6O)C(C)(C)[C@@H]5CC[C@]43C)[C@@H]12 | > 200 µM | > 100 µM | > 200 µM | > 200 µM |  |  | 
2 | C=C(C)[C@@H]1CC[C@]2(C(=O)O)CC[C@]3(C)[C@H](CC[C@@H]4[C@@]5(C)CC[C@H](O[C@@H]6O[C@H](CO)[C@@H](O)[C@H](O)[C@H]6O)C(C)(C)[C@@H]5CC[C@]43C)[C@@H]12 | > 200 µM | > 100 µM | > 200 µM | > 200 µM | 32 µM | > 100 µM | > 100 µM
3 | C=C(C)[C@@H]1CC[C@]2(C(=O)O)CC[C@]3(C)[C@H](CC[C@@H]4[C@@]5(C)CC[C@H](O[C@H]6O[C@H](CO)[C@@H](O)[C@H](O)[C@@H]6O)C(C)(C)[C@@H]5CC[C@]43C)[C@@H]12 | > 200 µM | > 100 µM | > 200 µM | > 200 µM |  |  | 
4 | C=C(C)[C@@H]1CC[C@]2(C(=O)O)CC[C@]3(C)[C@H](CC[C@@H]4[C@@]5(C)CC[C@H](O[C@@H]6O[C@H](CO)[C@H](O)[C@H](O)[C@H]6O)C(C)(C)[C@@H]5CC[C@]43C)[C@@H]12 | > 200 µM | > 100 µM | > 200 µM | > 200 µM | > 100 µM | > 100 µM | > 100 µM
5 | C=C(C)[C@@H]1CC[C@]2(C(=O)O)CC[C@]3(C)[C@H](CC[C@@H]4[C@@]5(C)CC[C@H](O[C@@H]6OC[C@@H](O)[C@H](O)[C@H]6O)C(C)(C)[C@@H]5CC[C@]43C)[C@@H]12 | > 200 µM | > 100 µM | > 200 µM | > 200 µM |  |  | 
6 | C=C(C)[C@@H]1CC[C@]2(CO)CC[C@]3(C)[C@H](CC[C@@H]4[C@@]5(C)CC[C@H](O[C@@H]6O[C@H](CO)[C@@H](O)[C@H](O)[C@H]6O)C(C)(C)[C@@H]5CC[C@]43C)[C@@H]12 | > 200 µM | > 100 µM | > 200 µM | > 200 µM | > 100 µM | > 100 µM | > 100 µM
7 | C=C(C)[C@@H]1CC[C@]2(CO)CC[C@]3(C)[C@H](CC[C@@H]4[C@@]5(C)CC[C@H](O[C@@H]6OC[C@H](O)[C@H](O)[C@H]6O)C(C)(C)[C@@H]5CC[C@]43C)[C@@H]12 | > 200 µM | > 100 µM | > 200 µM | > 200 µM | > 100 µM | > 100 µM | > 100 µM
8 | C=C(C)[C@@H]1CC[C@]2(C(=O)O)CC[C@]3(C)[C@H](CC[C@@H]4[C@@]5(C)CC[C@H](O[C@@H]6OC[C@H](O)[C@H](O)[C@H]6O)C(C)(C)[C@@H]5CC[C@]43C)[C@@H]12 | > 200 µM | > 100 µM | > 200 µM | > 200 µM | 11 µM | 12 µM | 19 µM
9 | C=C(C)[C@@H]1CC[C@]2(CO[C@@H]3O[C@H](CO)[C@@H](O)[C@H](O)[C@H]3O)CC[C@]3(C)[C@H](CC[C@@H]4[C@@]5(C)CC[C@H](O[C@@H]6O[C@@H](C)[C@H](O)[C@@H](O)[C@H]6O)C(C)(C)[C@@H]5CC[C@]43C)[C@@H]12 | > 200 µM | > 100 µM | > 200 µM | > 200 µM |  |  | 
10 | CC1(C)CC[C@]2(C(=O)O)CC[C@]3(C)C(=CC[C@@H]4[C@@]5(C)CC[C@H](O[C@@H]6OC[C@H](O)[C@H](O)[C@H]6O)[C@@](C)(CO)[C@@H]5CC[C@]43C)[C@@H]2C1 | 54 µM | 12 µM | 51 µM | 40 µM | 57 µM | 58 µM | 30 µM
11 | C=C(C)[C@@H]1CC[C@]2(C(=O)O[C@@H]3O[C@H](CO)[C@@H](O)[C@H](O)[C@H]3O)CC[C@]3(C)[C@H](CC[C@@H]4[C@@]5(C)CC[C@H](O[C@@H]6O[C@H](CO)[C@@H](O)[C@H](O)[C@H]6O)C(C)(C)[C@@H]5CC[C@]43C)[C@@H]12 | > 200 µM | > 100 µM | > 200 µM | > 200 µM |  |  | 
12 | C=C(C)[C@@H]1CC[C@]2(CO[C@@H]3O[C@H](CO)[C@@H](O)[C@H](O)[C@H]3O)CC[C@]3(C)[C@H](CC[C@@H]4[C@@]5(C)CC[C@H](O[C@@H]6OC[C@H](O)[C@H](O)[C@H]6O)C(C)(C)[C@@H]5CC[C@]43C)[C@@H]12 | > 200 µM | > 100 µM | > 200 µM | > 200 µM |  |  | 
13 | C=C(C)[C@@H]1CC[C@]2(C(=O)O)CC[C@]3(C)[C@H](CC[C@@H]4[C@@]5(C)CC[C@H](O[C@@H]6O[C@@H](C)[C@H](O)[C@@H](O)[C@H]6O)C(C)(C)[C@@H]5CC[C@]43C)[C@@H]12 | > 200 µM | > 100 µM | > 200 µM | > 200 µM | 3.9 µM | 2.6 µM | 31 µM
14 | C=C(C)[C@@H]1CC[C@]2(C(=O)O[C@@H]3O[C@H](CO)[C@@H](O)[C@H](O)[C@H]3O)CC[C@]3(C)[C@H](CC[C@@H]4[C@@]5(C)CC[C@H](O)C(C)(C)[C@@H]5CC[C@]43C)[C@@H]12 | > 200 µM | > 100 µM | > 200 µM | > 200 µM |  |  | 
15 | C=C(C)[C@@H]1CC[C@]2(CO)CC[C@]3(C)[C@H](CC[C@@H]4[C@@]5(C)CC[C@H](O[C@@H]6O[C@@H](CO)[C@H](O)[C@H]6O)C(C)(C)[C@@H]5CC[C@]43C)[C@@H]12 | > 200 µM | > 100 µM | > 200 µM | > 200 µM | > 100 µM | > 100 µM | > 100 µM
16 | C[C@@H]1O[C@@H](O[C@H]2[C@H](O[C@H]3CC[C@]4(C)[C@H]5CC=C6[C@@H]7CC(C)(C)CC[C@]7(C(=O)O)CC[C@@]6(C)[C@]5(C)CC[C@H]4C3(C)C)OC[C@H](O)[C@@H]2O)[C@H](O)[C@H](O)[C@H]1O | 4 µM | 2 µM | 2.8 µM | 3 µM | 30 µM | 15 µM | 14 µM
17 | C=C(C)[C@@H]1CC[C@]2(C(=O)O)CC[C@]3(C)[C@H](CC[C@@H]4[C@@]5(C)CC[C@H](O[C@@H]6O[C@@H](CO)[C@H](O)[C@H]6O)C(C)(C)[C@@H]5CC[C@]43C)[C@@H]12 | > 200 µM | > 100 µM | > 200 µM | > 200 µM | > 100 µM | > 100 µM | > 100 µM
18 | C=C(C)[C@@H]1CC[C@]2(C(=O)O[C@@H]3O[C@H](CO)[C@@H](O)[C@H](O)[C@H]3O)CC[C@]3(C)[C@H](CC[C@@H]4[C@@]5(C)CC[C@H](O[C@@H]6OC[C@H](O)[C@H](O)[C@H]6O)C(C)(C)[C@@H]5CC[C@]43C)[C@@H]12 | > 200 µM | > 100 µM | > 200 µM | > 200 µM |  |  | 
19 | C=C(C)[C@@H]1CC[C@]2(C(=O)O)CC[C@]3(C)[C@H](CC[C@@H]4[C@@]5(C)CC[C@H](O[C@H]6OC[C@@H](O)[C@@H](O)[C@@H]6O)C(C)(C)[C@@H]5CC[C@]43C)[C@@H]12 | > 200 µM | > 100 µM | > 200 µM | > 200 µM | 17 µM | 10 µM | 47 µM
20 | C=C(C)[C@@H]1CC[C@]2(CO[C@@H]3O[C@H](CO)[C@@H](O)[C@H](O)[C@H]3O)CC[C@]3(C)[C@H](CC[C@@H]4[C@@]5(C)CC[C@H](O[C@@H]6O[C@H](CO)[C@@H](O)[C@H](O)[C@H]6O)C(C)(C)[C@@H]5CC[C@]43C)[C@@H]12 | > 200 µM | > 100 µM | > 200 µM | > 200 µM |  |  | 
21 | C=C(C)[C@@H]1CC[C@]2(CO[C@@H]3O[C@@H](C)[C@H](O)[C@@H](O)[C@H]3O)CC[C@]3(C)[C@H](CC[C@@H]4[C@@]5(C)CC[C@H](O[C@@H]6O[C@@H](C)[C@H](O)[C@@H](O)[C@H]6O)C(C)(C)[C@@H]5CC[C@]43C)[C@@H]12 | > 200 µM | > 100 µM | > 200 µM | > 200 µM |  |  | 
22 | C=C(C)[C@@H]1CC[C@]2(C(=O)O[C@@H]3O[C@H](CO)[C@@H](O)[C@H](O)[C@H]3O)CC[C@]3(C)[C@H](CC[C@@H]4[C@@]5(C)CC[C@H](O[C@@H]6O[C@@H](C)[C@H](O)[C@@H](O)[C@H]6O)C(C)(C)[C@@H]5CC[C@]43C)[C@@H]12 | > 200 µM | > 100 µM | > 200 µM | > 200 µM |  |  | 
23 | C=C(C)[C@@H]1CC[C@]2(C(=O)O[C@@H]3O[C@@H](C)[C@H](O)[C@@H](O)[C@H]3O)CC[C@]3(C)[C@H](CC[C@@H]4[C@@]5(C)CC[C@H](O[C@@H]6O[C@@H](C)[C@H](O)[C@@H](O)[C@H]6O)C(C)(C)[C@@H]5CC[C@]43C)[C@@H]12 | > 200 µM | 85 µM | > 200 µM | > 200 µM |  |  | 
24 | C=C(C)[C@@H]1CC[C@]2(C(=O)O)CC[C@]3(C)[C@H](CC[C@@H]4[C@@]5(C)CC[C@H](O)C(C)(C)[C@@H]5CC[C@]43C)[C@@H]12 [BETULINIC ACID] | > 200 µM | > 100 µM | > 200 µM | > 200 µM |  |  | 
25 | C=C(C)[C@@H]1CC[C@]2(CO)CC[C@]3(C)[C@H](CC[C@@H]4[C@@]5(C)CC[C@H](O)C(C)(C)[C@@H]5CC[C@]43C)[C@@H]12 [BETULIN] | > 200 µM | > 100 µM | > 200 µM | > 200 µM |  |  | 
